Reference: patent US5270308A, “1,3-benzoxazine derivatives, their production and use” (Takeda Chemical Industries, Ltd., priority 1990, dated 1993)

What was measured:
[1] = test system: Rat Aorta Sample (constriction by TEA and Ba); assay: Vasorelaxation activity in rat aorta sample: effect on constriction caused by tetraethylammonium chloride (TEA) and barium chloride (Ba); assay type: cell-based, Male Wister rats; settings: TEA (30 to 45 mM) and Ba (0.3 mM), rat aorta ring, read-out: constriction inhibitory ratio (%)
Experimental: (§1) Vasorelaxation Activity in Rat Aorta Sample
Effect on Relaxation Caused by Tetraethylammonium Chloride (TEA) and Barium Chloride (Ba)
Method: Male Wister rats (10 to 13 weeks old) were used for the experiment. After dehematization, the aorta was excised and a ring sample (5 mm) was prepared. The sample was suspended in a bath filled with oxygenated (95% O2 -5% CO2) Krebs solution (36° C.). The ring sample was fixed at one end and the other end was connected to a transducer (Nippon Koden, Japan) for recording tension and the tension was measured. After a stabilization period of 1 hour, TEA (30 to 45 mM) and Ba (0.3 mM) were added to the bath to cause vasoconstriction. After the constriction has reached a steady state (after about 15 minutes), a test compound was added to the bath and its relaxation activity was measured.
Result: The results are shown in Table 3 in terms of the inhibitory ratio of the test compound.

[2] = test system: Rat Aorta Sample (constriction by KCl); assay: Vasorelaxation activity in rat aorta sample: effect on constriction caused by potassium chloride (KCl); assay type: cell-based, Male Wister rats; settings: KCl (80 mM), rat aorta ring, read-out: constriction inhibitory ratio (%)
Experimental: as §1
Effect on Relaxation Caused by Potassium Chloride (KCl)
Method: According to the same manner as that described in Experiment 1, this experiment was carried out except that KCl (80 mM) was used instead of TEA and Ba.
Result: The results are shown in Table 4 in terms of the inhibitory ratio of the test compound.

[3] = test system: spontaneously hypertensive rat; assay: Hypotensive activity in spontaneously hypertensive rats; assay type: in vivo; settings: po, orally, conscious spontaneously hypertensive rat, male, 20 to 23 weeks old, read-out: maximum effect (%) (mean ratio of maximum decrease in the blood pressure)
Experimental: Hypotensive Activity in Rats
Method: A spontaneously hypertensive rat (male, 20 to 23 weeks old) was operated in advance for retaining a cannula for blood pressure measurement in the left femoral artery. The experiment was carried out for the rat when waking on the next day after the operation. The cannula was connected with a transducer (Specrtramed) upon the experiment and the blood pressure was measured (Nippon Koden, Japan). A test compound was suspended in gum arabic and the suspension was administered orally.

SMILES: CC1(C)N=C(c2cccc[n+]2[O-])c2cc(C#N)ccc2O1 [Compound 20, 2-(6-cyano-2,2-dimethyl-2H-1,3-benzoxazin-4-yl)pyridine N-oxide]
- inhibition at 3 µM [1]: 35%
- inhibition at 10 µM [1]: 81%
- inhibition at 3 µM [2]: -4%
- inhibition at 10 µM [2]: -2%
- inhibition in vivo at 1 mg/kg [3]: 39%

SMILES: CC1(C)N=C(c2cccc[n+]2[O-])c2cc(Br)ccc2O1 [Compound 23, 2-(6-bromo-2,2-dimethyl-2H-1,3-benzoxazin-4-yl)pyridine N-oxide]
- inhibition at 1 µM [1]: 19%
- inhibition at 3 µM [1]: 82%
- inhibition at 10 µM [1]: 100%
- inhibition at 1 µM [2]: -1%
- inhibition at 3 µM [2]: 1%
- inhibition at 10 µM [2]: 4%
- inhibition in vivo at 1 mg/kg [3]: 32%

SMILES: CC1(C)N=C(c2cccc[n+]2[O-])c2cc(Cl)ccc2O1 [Compound 24, 2-(6-chloro-2,2-dimethyl-2H-1,3-benzoxazin-4-yl)pyridine N-oxide]
- inhibition at 3 µM [1]: 76%
- inhibition at 10 µM [1]: 94%
- inhibition at 10 µM [2]: -11%
- inhibition in vivo at 1 mg/kg [3]: 38%

SMILES: CC1(C)N=C(c2cccc[n+]2[O-])c2cc([N+](=O)[O-])ccc2O1 [Compound 29, 2-(2,2-dimethyl-6-nitro-2H-1,3-benzoxazin-4-yl)pyridine N-oxide]
- inhibition at 1 µM [1]: 74%
- inhibition at 1 µM [2]: -8%
- inhibition in vivo at 1 mg/kg [3]: 61%

SMILES: CCOc1ccc[n+]([O-])c1C1=NC(C)(C)Oc2ccc(C#N)cc21 [Compound 38, 2-(6-cyano-2,2-dimethyl-2H-1,3-benzoxazin-4-yl)-3-ethoxypyridine N-oxide]
- inhibition in vivo at 1 mg/kg [3]: 58%

SMILES: Cc1cc2c(cc1Br)C(c1cccc[n+]1[O-])=NC(C)(C)O2 [Compound 47, 2-(6-bromo-2,2,7-trimethyl-2H-1,3-benzoxazin-4-yl)pyridine N-oxide]
- inhibition at 1 µM [1]: 72%
- inhibition at 3 µM [1]: 100%
- inhibition at 1 µM [2]: -1%
- inhibition at 3 µM [2]: 2%

SMILES: Cc1cc2c(cc1[N+](=O)[O-])C(c1cccc[n+]1[O-])=NC(C)(C)O2 [Compound 49, 2-(2,2,7-trimethyl-6-nitro-2H-1,3-benzoxazin-4-yl)pyridine N-oxide]
- inhibition at 1 µM [1]: 28%
- inhibition at 3 µM [1]: 77%
- inhibition at 10 µM [1]: 86%
- inhibition at 1 µM [2]: -7%
- inhibition at 3 µM [2]: -6%
- inhibition at 10 µM [2]: -3%

SMILES: C#Cc1ccc2c(c1)C(c1cccc[n+]1[O-])=NC(C)(C)O2 [Compound 53, 2-(6-ethynyl-2,2-dimethyl-2H-1,3-benzoxazin-4-yl)pyridine N-oxide]
- inhibition at 10 µM [1]: 89%
- inhibition at 10 µM [2]: -4%

SMILES: CC(=O)c1ccc2c(c1)C(c1cccc[n+]1[O-])=NC(C)(C)O2 [Compound 56, 2-(6-acetyl-2,2-dimethyl-2H-1,3-benzoxazin-4-yl)pyridine N-oxide]
- inhibition in vivo at 1 mg/kg [3]: 22%

SMILES: Cc1cc2c(cc1C#N)C(c1cccc[n+]1[O-])=NC(C)(C)O2 [Compound 65, 2-(6-cyano-2,2,7-trimethyl-2H-1,3-benzoxazin-4-yl)pyridine N-oxide]
- inhibition at 3 µM [1]: 48%
- inhibition at 10 µM [1]: 74%
- inhibition at 3 µM [2]: -2%
- inhibition at 10 µM [2]: 0%

SMILES: CC1(C)N=C(c2cccc[n+]2[O-])c2cc(OC(F)(F)F)ccc2O1 [Compound 69, 2-(6-trifluoromethoxy-2,2-dimethyl-2H-1,3-benzoxazin-4-yl)pyridine N-oxide]
- inhibition at 3 µM [1]: 45%
- inhibition at 10 µM [1]: 81%
- inhibition at 3 µM [2]: -1%
- inhibition at 10 µM [2]: 2%
- inhibition in vivo at 1 mg/kg [3]: 44%

SMILES: CC1(C)N=C(c2cccc[n+]2[O-])c2cc(C(F)(F)F)ccc2O1 [Compound 75, 2-(6-trifluoromethyl-2,2-dimethyl-2H-1,3-benzoxazin-4-yl)pyridine N-oxide]
- inhibition at 1 µM [1]: 38%
- inhibition at 3 µM [1]: 91%
- inhibition at 10 µM [1]: 100%
- inhibition at 1 µM [2]: -2%
- inhibition at 3 µM [2]: 1%
- inhibition at 10 µM [2]: 2%
- inhibition in vivo at 1 mg/kg [3]: 54%

SMILES: CC1(C)N=C(c2cccc[n+]2[O-])c2cc(C(F)(F)C(F)(F)F)ccc2O1 [Compound 77, 2-(6-pentafluoroethyl-2,2-dimethyl-2H-1,3-benzoxazin-4-yl)pyridine N-oxide]
- inhibition at 3 µM [1]: 45%
- inhibition at 10 µM [1]: 98%
- inhibition at 3 µM [2]: 3%
- inhibition at 10 µM [2]: 10%
- inhibition in vivo at 1 mg/kg [3]: 25%

SMILES: CC1(C)N=C(c2cccc[n+]2[O-])c2cc(Cl)c(Cl)cc2O1 [Compound 79, 2-(6,7-dichloro-2,2-dimethyl-2H-1,3-benzoxazin-4-yl)pyridine N-oxide]
- inhibition at 1 µM [1]: 24%
- inhibition at 3 µM [1]: 57%
- inhibition at 10 µM [1]: 65%
- inhibition at 1 µM [2]: -5%
- inhibition at 3 µM [2]: -1%
- inhibition at 10 µM [2]: 3%
- inhibition in vivo at 1 mg/kg [3]: 36%

SMILES: CC1(C)N=C(c2cccc[n+]2[O-])c2cc(Br)c(Cl)cc2O1 [Compound 89, 2-(6-bromo-7-chloro-2,2-dimethyl-2H-1,3-benzoxazin-4-yl)pyridine 1-oxide]
- inhibition at 1 µM [1]: 59%
- inhibition at 3 µM [1]: 67%
- inhibition at 10 µM [1]: 71%
- inhibition at 1 µM [2]: -11%
- inhibition at 3 µM [2]: -8%
- inhibition at 10 µM [2]: -3%
- inhibition in vivo at 1 mg/kg [3]: 33%

SMILES: CC1(C)N=C(c2cccc[n+]2[O-])c2cc(C#N)c(Cl)cc2O1 [Compound 91, 2-(7-chloro-6-cyano-2,2-dimethyl-2H-1,3-benzoxazin-4-yl)pyridine N-oxide]
- inhibition in vivo at 1 mg/kg [3]: 39%

SMILES: CC1(C)N=C(c2cccc[n+]2[O-])c2cc(Br)c(Br)cc2O1 [Compound 93, 2-(6,7-dibromo-2,2-dimethyl-2H-1,3-benzoxazin-4-yl)pyridine N-oxide]
- inhibition at 1 µM [1]: 52%
- inhibition at 3 µM [1]: 71%
- inhibition in vivo at 1 mg/kg [3]: 22%

SMILES: CC1(C)N=C(c2cccc[n+]2[O-])c2cc(Br)c(F)cc2O1 [Compound 95, 2-(6-bromo-7-fluoro-2,2-dimethyl-2H-1,3-benzoxazin-4-yl)pyridine N-oxide]
- inhibition in vivo at 1 mg/kg [3]: 55%

SMILES: CC1(C)N=C(c2cccnc2)c2cc(Br)ccc2O1 [Compound 98]
- inhibition at 1 µM [2]: -4%
- inhibition at 3 µM [2]: -6%

SMILES: CCOc1ccc[n+]([O-])c1C1=NC(C)(C)Oc2cc(Cl)c(Br)cc21 [Compound 117, 2-(6-bromo-7-chloro-2,2-dimethyl-2H-1,3-benzoxazin-4-yl)-3-ethoxypyridine N-oxide]
- inhibition in vivo at 1 mg/kg [3]: 54%

SMILES: COc1ccc[n+]([O-])c1C1=NC(C)(C)Oc2ccc(C(F)(F)F)cc21 [Compound 118, 2-(6-trifluoromethyl-2,2-dimethyl-2H-1,3-benzoxazin-4-yl)-3-methoxypyridineN-oxide]
- inhibition in vivo at 1 mg/kg [3]: 43%

SMILES: CCOc1ccc[n+]([O-])c1C1=NC(C)(C)Oc2ccc(Br)cc21 [Compound 119, 2-(6-bromo-2,2-dimethyl-2H-1,3-benzoxazin-4-yl)-3-ethoxypyridine N-oxide]
- inhibition in vivo at 1 mg/kg [3]: 61%

SMILES: CCOc1ccc[n+]([O-])c1C1=NC(C)(C)Oc2ccc(C(F)(F)F)cc21 [Compound 124, 3-ethoxy-2-(6-trifluoromethyl-2,2-dimethyl-2H-1,3-benzoxazin-4-yl)pyridine N-oxide]
- inhibition in vivo at 1 mg/kg [3]: 48%

SMILES: COc1ccc[n+]([O-])c1C1=NC(C)(C)Oc2ccc(C#N)cc21 [Compound 125, 2-(6-cyano-2,2-dimethyl-2H-1,3-benzoxazin-4-yl)-3-methoxypyridine N-oxide]
- inhibition in vivo at 1 mg/kg [3]: 23%

SMILES: COc1ccc[n+]([O-])c1C1=NC(C)(C)Oc2cc(Cl)c(Br)cc21 [Compound 126, 2-(6-bromo-7-chloro-2,2-dimethyl-2H-1,3-benzoxazin-4-yl)-3-methoxypyridine N-oxide]
- inhibition in vivo at 1 mg/kg [3]: 49%

SMILES: COc1ccc[n+]([O-])c1C1=NC(C)(C)Oc2ccc(Br)cc21 [Compound 129, 2-(6-bromo-2,2-dimethyl-2H-1,3-benzoxazin-4-yl)-3-methoxypyridine N-oxide]
- inhibition in vivo at 1 mg/kg [3]: 55%

SMILES: CC1(C)N=C(c2c(O)ccc[n+]2[O-])c2cc(Br)ccc2O1 [Compound 143, 2-(6-bromo-2,2-dimethyl-2H-1,3-benzoxadin-4-yl)-3-hydroxypyridine N-oxide]
- inhibition in vivo at 1 mg/kg [3]: 54%
